Assay results taken from article PMC4564001 (Bioorganic & medicinal chemistry letters, 2015).

What was measured:
[1] = format: in vitro ADME, human; settings: 1 μM, 37°C, LC-MS/MS
[2] = format: in vivo; settings: DPS vehicle
neutrophil influx = experiment: Ozone rat model of pulmonary inflammation; format: in vivo, Sprague-Dawley rats
[3] = format: in vitro ADME; settings: data not shown
Aqueous solubility = format: physicochemical; settings: qualitative statement

Structure (SMILES): O=C(Nc1ccc(F)cc1)c1ccc(SCc2cc(OC(F)(F)F)ccc2B(O)O)nc1 [Compound 6, 6-(2-boronic acid-5-trifluoromethoxy-benzylsulfanyl)-N-(4-fluoro-phenyl)-nicotinamide]
- Human Plasma stability (% remaining) 1 hr [1]: 62 % remaining
- Human Plasma stability (% remaining) 4 hr [1]: 34 % remaining
- Human Plasma stability (% remaining) 24 hr [1]: 2 % remaining
- Rat PK AUC @ 1 mg/kg IV [2]: 5.40 µM·h
- Reduction of neutrophil influx (BALF) (neutrophil influx; single IV dose 1 mg/kg at t = 0, 1 ppm ozone 4 hours, BALF at 24 hours): modest reduction in neutrophil influx
- Stability in rat plasma (6 vs 7) [3]: no significant difference

Structure (SMILES): O=C(Nc1ccc(F)cc1)c1cnc(N(Cc2ccccc2)Cc2ccc(B(O)O)cn2)nc1 [Compound 7, (2-{(Benzyl)[(5-boronic acid-2-pyridyl)methyl]amino}-5-pyrimidinyl)(4-fluorophenylamino)formaldehyde]
- Human Plasma stability (% remaining) 1 hr [1]: 90 % remaining
- Human Plasma stability (% remaining) 4 hr [1]: 71 % remaining
- Human Plasma stability (% remaining) 24 hr [1]: 62 % remaining
- Effectiveness at reducing neutrophil influx relative to 6 (neutrophil influx; single IV dose 1 mg/kg, ozone model, side-by-side with 6): twice as effective
- Stability in rat plasma (6 vs 7) [3]: no significant difference

Structure (SMILES): CN(Cc1ccc(B(O)O)cn1)c1ccc(C(=O)Nc2ccc(F)cc2)cn1 [Compound 22]
- Aqueous solubility (Aqueous solubility): improved aqueous solubility

Structure (SMILES): CN(Cc1ccc(B(O)O)cn1)c1ncc(C(=O)Nc2ccc(F)cc2)cn1 [Compound 23]
- Aqueous solubility (Aqueous solubility): improved aqueous solubility
